In patent publication US9956220B2, “Imidazo-pyridazine derivatives as casein kinase 1 δ/ϵ inhibitors” (Bristol-Myers Squibb Company, priority 2014, dated 2018):

What was measured:
CK1δ = CK1δ (Homo sapiens, UniProt P48730); assay: CK1δ kinase assay (Caliper LABCHIP electrophoretic separation of fluoresceinated peptide substrate and product); type: biochemical; conditions: 200 pM CK1δ, 50 μM ATP, 1.5 μM peptide substrate, 22 hours at room temperature
Method: (§1) CK1ϵ and CK1δ Kinase Assays
(§2) The kinase assay was performed in V-bottom 384-well plates.
(§3) The reaction was incubated at room temperature for 22 hours and terminated by adding 45 μl of 35 mM EDTA to each sample. The reaction mixture was analyzed on the Caliper LABCHIP®3000 (Caliper, Hopkinton, Mass.) by electrophoretic separation of the unphosphorylated substrate and phosphorylated product. […] Compounds were dissolved at 10 mM in dimethylsulfoxide (DMSO) and evaluated at eleven concentrations. IC50 values were derived by non-linear regression analysis.

CK1ϵ = CK1ϵ (Homo sapiens, UniProt P49674); assay: CK1ϵ kinase assay (Caliper LABCHIP electrophoretic separation of fluoresceinated peptide substrate and product); type: biochemical; conditions: 200 pM CK1ϵ, 50 μM ATP, 1.5 μM peptide substrate, 22 hours at room temperature; read-out: CK1ε (IC50)
Method: as §1, §2, §3

CK1ϵ, sequence (P49674 whole entry): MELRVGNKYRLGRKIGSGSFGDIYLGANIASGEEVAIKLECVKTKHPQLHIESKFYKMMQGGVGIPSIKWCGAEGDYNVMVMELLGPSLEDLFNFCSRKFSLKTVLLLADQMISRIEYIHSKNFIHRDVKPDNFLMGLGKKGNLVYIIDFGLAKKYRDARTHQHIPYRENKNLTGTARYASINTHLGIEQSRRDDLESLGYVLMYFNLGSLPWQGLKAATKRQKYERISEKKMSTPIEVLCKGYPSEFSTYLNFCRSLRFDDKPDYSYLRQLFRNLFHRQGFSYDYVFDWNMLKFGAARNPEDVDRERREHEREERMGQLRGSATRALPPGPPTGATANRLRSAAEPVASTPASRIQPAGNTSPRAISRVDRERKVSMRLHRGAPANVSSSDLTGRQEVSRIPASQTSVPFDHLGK
CK1δ, sequence (P48730 whole entry): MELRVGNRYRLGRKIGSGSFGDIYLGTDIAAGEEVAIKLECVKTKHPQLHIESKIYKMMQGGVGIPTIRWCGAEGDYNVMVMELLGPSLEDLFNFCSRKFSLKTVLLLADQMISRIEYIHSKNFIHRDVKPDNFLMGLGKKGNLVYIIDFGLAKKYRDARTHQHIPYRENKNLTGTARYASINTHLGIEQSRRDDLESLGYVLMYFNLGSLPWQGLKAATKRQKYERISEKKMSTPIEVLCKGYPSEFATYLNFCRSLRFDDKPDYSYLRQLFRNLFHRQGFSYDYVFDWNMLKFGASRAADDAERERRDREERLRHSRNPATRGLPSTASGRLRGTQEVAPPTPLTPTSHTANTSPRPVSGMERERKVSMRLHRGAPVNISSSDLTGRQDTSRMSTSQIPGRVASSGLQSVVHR

Row | SMILES | IC50 (CK1δ) [nM] | IC50 (CK1ϵ) [nM]
1 | CN1CCn2nc(-c3ccc(F)cc3)c(-c3ccc4nc(NC(=O)c5ccnc(F)c5)cn4n3)c2C1 [Example 26, 2-Fluoro-N-(6-(2-(4-fluorophenyl)-5-methyl-4,5,6,7-tetrahydropyrazolo [1,5-a]pyrazin-3-yl)imidazo[1,2-b]pyridazin-2-yl)isonicotinamide] | 0.4 | 7.3
2 | O=C(Nc1cn2nc(-c3c(-c4ccc(F)cc4)nn4c3CN(CCC(F)(F)F)CC4)ccc2n1)c1ccnc(F)c1 [Example 27, 2-Fluoro-N-(6-(2-(4-fluorophenyl)-5-(3,3,3-trifluoropropyl)-4,5,6,7-tetrahydropyrazolo[1,5-a]pyrazin-3-yl)imidazo[1,2-b]pyridazin-2-yl)isonicotinamide] | 0.5 | 3.6
3 | O=C(Nc1cn2nc(-c3c(-c4ccc(F)cc4)nn4c3CN(C3CCC3)CC4)ccc2n1)c1ccnc(F)c1 [Example 29, N-(6-(5-Cyclobutyl-2-(4-fluorophenyl)-4,5,6,7-tetrahydropyrazolo[1,5-a]pyrazin-3-yl)imidazo[1,2-b]pyridazin-2-yl)-2-fluoroisonicotinamide] | 0.4 | 6
4 | O=C(Nc1cn2nc(-c3c(-c4ccc(F)cc4)nn4c3CN(C3COC3)CC4)ccc2n1)c1ccnc(F)c1 [Example 30, 2-Fluoro-N-(6-(2-(4-fluorophenyl)-5-(oxetan-3-yl)-4,5,6,7-tetrahydropyrazolo[1,5-a]pyrazin-3-yl)imidazo[1,2-b]pyridazin-2-yl)isonicotinamide] | 0.5 | 6.5
5 | CC(C)OC(=O)N1CCn2nc(-c3ccc(F)cc3)c(-c3ccc4nc(NC(=O)c5ccnc(F)c5)cn4n3)c2C1 [Example 34, Isopropyl 3-(2-(2-fluoroisonicotinamido)imidazo[1,2-b]pyridazin-6-yl)-2-(4-fluorophenyl)-6,7-dihydropyrazolo[1,5-a] pyrazine-5(4H)-carboxylate] | 1 | 6.5

More lines, in order of falling IC50 (CK1δ), values ahead:

Row | IC50 (CK1δ) [nM] | IC50 (CK1ϵ) [nM] | SMILES
6 | 0.4 | 2.9 | N#CCC(=O)N1CCn2nc(-c3ccc(F)cc3)c(-c3ccc4nc(NC(=O)c5ccnc(F)c5)cn4n3)c2C1 [Example 24, N-(6-(5-(2-Cyanoacetyl)-2-(4-fluorophenyl)-4,5,6,7-tetrahydropyrazolo[1,5-a]pyrazin-3-yl)imidazo[1,2-b]pyridazin-2-yl)-2-fluoroisonicotinamide]
7 | 0.3 | 1.5 | O=C(Nc1cn2nc(-c3c(-c4ccc(F)cc4)nn4c3CN(CC(F)F)CC4)ccc2n1)c1ccnc(F)c1 [Example 32, N-(6-(5-(2,2-Difluoroethyl)-2-(4-fluorophenyl)-4,5,6,7-tetrahydropyrazolo[1,5-a]pyrazin-3-yl)imidazo[1,2-b]pyridazin-2-yl)-2-fluoroisonicotinamide]
8 | 0.3 | 1.9 | COC(=O)N1CCn2nc(-c3ccc(F)cc3)c(-c3ccc4nc(NC(=O)c5ccnc(F)c5)cn4n3)c2C1 [Example 33, Methyl 3-(2-(2-fluoroisonicotinamido)imidazo[1,2-b]pyridazin-6-yl)-2-(4-fluorophenyl)-6,7-dihydropyrazolo[1,5-a]pyrazine-5(4H)-carboxylate]
9 | 0.2 | 2.5 | O=C(Nc1cn2nc(-c3c(-c4ccc(F)cc4)nn4c3CN(CCCF)CC4)ccc2n1)c1ccnc(F)c1 [Example 28, 2-Fluoro-N-(6-(2-(4-fluorophenyl)-5-(3-fluoropropyl)-4,5,6,7-tetrahydropyrazolo[1,5-a]pyrazin-3-yl)imidazo[1,2-b]pyridazin-2-yl)isonicotinamide]
10 | 0.1 | 1.1 | O=C(Nc1cn2nc(-c3c(-c4ccc(F)cc4)nn4c3CN(C3CC3)CC4)ccc2n1)c1ccnc(F)c1 [Example 31, N-(6-(5-Cyclopropyl-2-(4-fluorophenyl)-4,5,6,7-tetrahydropyrazolo[1,5-a]pyrazin-3-yl)imidazo[1,2-b]pyridazin-2-yl)-2-fluoroisonicotinamide]
